Results taken from patent US20250090524A1, “BTK INHIBITORS” (BIOGEN MA INC., priority 2021, published 2025).

What was measured:
[1] = tested on: CD69 expression on CD19+ B cells in human whole blood; assay: In Vitro Whole Blood CD69 Assay; assay type: cell-based; settings: B-cell; human heparinized whole blood, anti-human IgD stimulation, overnight (18 to 22 hours), percentage of CD19+ B cells expressing CD69, flow cytometry; read-out: In Vitro HWB CD69 Assay IC50 Score
Method: Human heparinized venous blood from health donors was aliquoted into 96-well plate and “spiked” with serial dilutions of formula I compounds in DMSO or with DMSO without drug. The final concentration of DMSO in all wells was 0.1%. The plate was incubated at 37° C. for 30 min. Drug-containing samples were stimulated with […] mouse anti-human IgD-dextran (1A62) or 20 μg/mL polyclonal rabbit F(ab′)2 anti-human IgD.
Phosphate-buffered saline (PBS) was added to the negative control unstimulated sample and the plates were incubated overnight (18 to 22 hours) at 37° C. Cells were stained with fluorochrome-conjugated anti-CD19 and anti-CD69 antibodies. Lyse/fix solution was used to remove red blood cells by hypotonic lysis and to fix the remaining cells, which were then analyzed by flow cytometry. CD19+B cells were gated and analyzed for CD69 expression.
The percentage of B cells expressing CD69 was plotted versus the log 10 of the concentration of the drug and the best-fit curves (variable Hill slope) were generated to obtain the IC50 value.
“†” represents an IC50 of greater than 10 μM. “††” represents an IC50 of greater than 1 μM and equal to or less than 10 μM (1 μM<IC50≤10 μM). “†††” represents an IC50 of less than 1 μM.

BTK = target: T1, BTK (Homo sapiens, UniProt Q06187); assay: In Vitro BTK Kinase Assay: Btk-PolyGAT-LS Assay; assay type: biochemical; settings: active BTK enzyme 0.25 nM, fluorescein-labeled polyGAT peptide 100 nM, 30 minutes incubation, TRF readout; read-out: In Vitro BTK Kinase Assay IC50 Score
T1 construct: purchased Upstate 14-552
Method: The purpose of the BTK in vitro assay is to determine compound potency against BTK through the measurement of IC50. Compound inhibition is measured after monitoring the amount of phosphorylation of a fluorescein-labeled polyGAT peptide (Invitrogen PV3611) in the presence of active BTK enzyme (Upstate 14-552), ATP, and inhibitor. The BTK kinase reaction was done in a black 96 well plate (costar 3694). For a typical assay, a 24 μL aliquot of a ATP/peptide master mix (final concentration; ATP […], polyGAT 100 nM) in kinase buffer (10 mM Tris-HCl pH 7.5, 10 mM MgCl2, 200 μM […], 5 mM DTT, 0.01% Triton X-100, and 0.2 mg/ml casein) is added to each well. Next, I uL of a 4-fold, 40× compound titration in 100% DMSO solvent is added, followed by adding […] of BTK enzyme mix in 1× kinase buffer (with a final concentration of 0.25 nM). The assay is incubated for 30 minutes before being stopped with […] of a 50 mM EDTA solution. Aliquots (5 uL) of the kinase reaction are transferred to a low volume white 384 well plate (Corning 3674), and […] of a 2× detection buffer (Invitrogen PV3574, with 4 nM Tb-PY20 antibody, Invitrogen PV3552) is added. The plate is covered and incubated for 45 minutes at room temperature. Time resolved fluorescence (TRF) on Molecular Devices M5 (332 nm excitation; 488 nm emission; 518 nm fluorescein emission) is measured. IC50 values are calculated using a four parameter fit with 100% enzyme activity determined from the DMSO control and 0% activity from the EDTA control.
“†” represents an IC50 of greater than 1 μM and equal to or less than 10 μM. “††” represents an IC50 of greater than 10 nM and equal to or less than 1 μM (10 nM<IC50≤1 μM). “†††” represents an IC50 of greater than 1 nM and equal to or less than 10 nM (1 nM<IC50≤10 nM). “††††” represents an IC50 of less than 1 nM.

T1 sequence (Q06187 whole entry): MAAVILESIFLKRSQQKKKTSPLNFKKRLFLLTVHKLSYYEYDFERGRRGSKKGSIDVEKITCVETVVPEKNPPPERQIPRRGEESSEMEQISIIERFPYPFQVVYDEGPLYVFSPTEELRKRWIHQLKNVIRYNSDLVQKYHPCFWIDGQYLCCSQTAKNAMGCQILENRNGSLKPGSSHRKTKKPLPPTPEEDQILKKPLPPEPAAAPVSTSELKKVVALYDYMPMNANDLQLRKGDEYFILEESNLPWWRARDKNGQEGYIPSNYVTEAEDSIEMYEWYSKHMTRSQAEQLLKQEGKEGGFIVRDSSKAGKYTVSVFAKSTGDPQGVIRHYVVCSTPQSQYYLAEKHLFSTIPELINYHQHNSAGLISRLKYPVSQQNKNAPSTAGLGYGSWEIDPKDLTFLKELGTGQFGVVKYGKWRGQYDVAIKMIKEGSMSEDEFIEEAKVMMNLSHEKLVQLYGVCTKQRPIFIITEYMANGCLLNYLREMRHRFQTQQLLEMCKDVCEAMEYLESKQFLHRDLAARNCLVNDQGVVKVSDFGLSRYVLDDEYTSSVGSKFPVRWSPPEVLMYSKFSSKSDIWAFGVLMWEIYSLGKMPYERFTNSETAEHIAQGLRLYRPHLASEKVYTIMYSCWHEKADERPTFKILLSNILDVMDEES

Work on C=CC(=O)N1C2CCC1CC(c1nc(-c3cnn(C)c3)cn3nccc13)C2 (stereo not drawn) [Example 11, 1-[3-[6-(1-methylpyrazol-4-yl)pyrazolo[1,5-a]pyrazin-4-yl]-8-azabicyclo [3.2.1]octan-8-yl]prop-2-en-1-one] yielded an IC50 [1] of 1000 to 10000 nM and an IC50 (BTK) of 1 to 10 nM.
Work on C=CC(=O)N1C2CCCC1CC(c1nc(-c3cnn(C)c3)cn3nccc13)C2 (stereo not drawn) [Example 13, 1-[3-[6-(1-methylpyrazol-4-yl)pyrazolo[1,5-a]pyrazin-4-yl]-9-azabicyclo[3.3.1]nonan-9-yl]prop-2-en-1-one] yielded an IC50 [1] of 1000 to 10000 nM and an IC50 (BTK) of 1 to 10 nM.
C=CC(=O)N1CC2CCC1CC2c1nc(-c2cnn(C)c2)cn2nccc12 (stereo not drawn) [Example 14, 1-[5-[6-(1-methylpyrazol-4-yl)pyrazolo[1,5-a]pyrazin-4-yl]-2-azabicyclo[2.2.2]octan-2-yl]prop-2-en-1-one] showed an IC50 [1] of 1000 to 10000 nM and an IC50 (BTK) of 1 to 10 nM.
Work on C=CC(=O)N1CCC(c2nc(-c3cnn(C)c3)cn3nccc23)C(C)C1 (stereo not drawn) [Example 15, 1-[3-methyl-4-[6-(1-methylpyrazol-4-yl)pyrazolo[1,5-a]pyrazin-4-yl]-1-piperidyl]prop-2-en-1-one] yielded an IC50 [1] of 1000 to 10000 nM and an IC50 (BTK) of 10 to 1000 nM.
C=CC(=O)Nc1cccc(-c2nc(-c3cnn(C)c3)cn3nccc23)c1 [Example 28, N-(3-(6-(1-methyl-1H-pyrazol-4-yl)pyrazolo[1,5-a]pyrazin-4-yl)phenyl) acrylamide] was tested, and the IC50 [1] was 1000 to 10000 nM and the IC50 (BTK) was 10 to 1000 nM.
C=CC(=O)N(C)c1cccc(-c2nc(-c3cnn(C)c3)cn3nccc23)c1 [Example 29, N-methyl-N-(3-(6-(1-methyl-1H-pyrazol-4-yl)pyrazolo[1,5-a]pyrazin-4-yl)phenyl)acrylamide] was tested, and the IC50 [1] was 1000 to 10000 nM and the IC50 (BTK) was 1 to 10 nM.
